Measurements published in US20220380314A1, “SUBSTITUTED, SATURATED AND UNSATURATED N-HETEROCYCLIC CARBOXAMIDES AND RELATED COMPOUNDS FOR THEIR USE IN THE TREATMENT OF MEDICAL DISORDERS” (Bial - R&D Investments, S.A., priority 2019, published 2022).
Counter-ions that a name gives are not always drawn.

These compounds were tested against T1, acid ceramidase (hACR) (Homo sapiens, UniProt Q13510) (assay: Acid ceramidase inhibition, biochemical fluorescent assay with cell lysates overexpressing acid ceramidase, substrate Rbm14-12). Settings: cell lysates overexpressing acid ceramidase; 1 hr preincubation at RT; pH 4.5; substrate Rbm14-12 6.3 μM; read-out: hACR IC50.
T1 construct: expressed in transfected cells; cell lysate used
T1 sequence (Q13510 143-395 limits assumed): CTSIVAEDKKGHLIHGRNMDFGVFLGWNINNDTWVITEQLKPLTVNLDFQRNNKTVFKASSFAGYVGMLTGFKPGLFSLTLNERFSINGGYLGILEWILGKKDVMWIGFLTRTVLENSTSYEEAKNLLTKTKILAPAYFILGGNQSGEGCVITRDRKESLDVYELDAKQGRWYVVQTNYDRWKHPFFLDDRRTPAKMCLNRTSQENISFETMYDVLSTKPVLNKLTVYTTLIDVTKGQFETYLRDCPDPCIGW
T1 sequence (Q13510 22-142 limits assumed): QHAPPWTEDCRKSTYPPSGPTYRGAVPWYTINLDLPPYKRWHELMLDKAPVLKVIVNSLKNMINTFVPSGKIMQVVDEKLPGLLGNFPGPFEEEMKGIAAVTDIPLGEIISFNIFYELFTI
Experimental: The ability of exemplary compounds to inhibit acid ceramidase was measured.
Cell lysates overexpressing acid ceramidase were used as the enzyme source for compound potency determination in a biochemical fluorescent assay. Briefly, compounds were preincubated with 10 µg protein of cell lysates in a dose-response manner for 1 hr at RT in the assay buffer containing 25 mM NaAC and 100 mM NaCl, pH 4.5. The reaction was initiated by the addition of substrate Rbm14-12 at a final concentration of 6.3 μM. The reaction was run at RT for 1 hr before it was stopped by the addition of the stopping buffer containing 20% methanol (v/v), 1 mg/ml NaIO4, 0.1 M glycine, pH 10.6. The samples were incubated with the stopping buffer at RT for 1 hr to allow the fluorescent product to be formed. Finally the plate was read with SpectraMax i3 plate reader (Molecular Devices) at ex360 nm and em446 nm. Data were collected and used to determine the IC50 values of compounds by curve fitting to the four-parameter inhibition equation.
The symbol “A” indicates inhibition of less than 0.2 μM; the symbol “B” indicates inhibition in the range of 0.2 μM up to 1 μM; and the symbol “C” indicates inhibition of greater than 1 μM.

| IC50 | Compound |
| --- | --- |
| < 200 nM | CC1CCC(c2ccccc2)CN1C(=O)NCCCCc1ccccc1 (mixture of isomers) [Example 80, 2-Methyl-5-phenyl-N-(4-phenylbutyl)piperidine-1-carboxamide] |
| > 1000 nM | CC1(C)CC(N2CCCC(c3ccccc3)C2)CCN1C(=O)NCCCCc1ccccc1 (mixture of isomers) [Example 92, 2,2-Dimethyl-N-(4-phenylbutyl)-4-(3-phenyl-1-piperidyl)piperidine-1-carboxamide] |
| < 200 nM | CC[C@H](C)NC(=O)N1C(c2ccc(OC)cc2)COCC1(C)C (mixture of isomers) [Example 155, (5R) AND (5S)-5-(4-Methoxyphenyl)-3,3-dimethyl-N-[(1S)-1-methylpropyl]morpholine-4-carboxamide] |
| < 200 nM | CCCCCNC(=O)N1C(c2ccc(F)cc2)COCC1(C)C (single isomer, unassigned) [Example 139, (5S) or (5R)-5-(4-fluorophenyl)-3,3-dimethyl-N-pentylmorpholine-4-carboxamide] |
| > 1000 nM | CCCCCNC(=O)N1CCC(c2ccccc2)CC1(C)C (stereo not drawn) [Example 76, 2,2-Dimethyl-N-pentyl-4-phenylpiperidine-1-carboxamide] |
| > 1000 nM | CC1(C)CC(c2ccccc2)CCN1C(=O)NC1CCOCC1 (stereo not drawn) [Example 78, 2,2-Dimethyl-4-phenyl-N-tetrahydropyran-4-yl-piperidine-1-carboxamide] |
| < 200 nM | CCCCCNC(=O)N1CCC(N2CCCCC2)CC1(C)C (stereo not drawn) [Example 84, 2,2-Dimethyl-N-pentyl-4-(1-piperidyl)piperidine-1-carboxamide] |
| > 1000 nM | CCCCCCCNC(=O)N1CCC(N2CCCCC2)CC1(C)C (stereo not drawn) [Example 85, N-Heptyl-2,2-dimethyl-4-(1-piperidyl)piperidine-1-carboxamide] |
| < 200 nM | CN1CCN(C2CCN(C(=O)NCCCCc3ccccc3)C(C)(C)C2)CC1 (stereo not drawn) [Example 87, 2,2-Dimethyl-4-(4-methylpiperazin-1-yl)-N-(4-phenylbutyl)piperidine-1-carboxamide dihydrochloride] |
| > 1000 nM | CC1(C)CCCCN1C(=O)NCCCCc1ccccc1 [Example 90, 2,2-Dimethyl-N-(4-phenylbutyl)piperidine-1-carboxamide carboxamide] |
| < 200 nM | CC1(C)CC(N2CCC(c3ccccc3)CC2)CCN1C(=O)NCCCCc1ccccc1 (stereo not drawn) [Example 93, 2,2-Dimethyl-N-(4-phenylbutyl)-4-(4-phenyl-1-piperidyl)piperidine-1-carboxamide] |
| 200 to 1000 nM | CCCCCNC(=O)N1CCC(N2CCCCC2)CC1C (stereo not drawn) [Example 95, 2-Methyl-N-pentyl-4-(1-piperidyl)piperidine-1-carboxamide] |
| < 200 nM | CCCCCNC(=O)N1CCC(N2CCCCC2)C[C@H]1C (stereo partly drawn) [Example 96, (2R)-Methyl-N-pentyl-4-(1-piperidyl)piperidine-1-carboxamide hydrochloride salt] |
| > 1000 nM | CCCCCNC(=O)N1[C@@H]2CC[C@H]1C[C@H](N1CCCCC1)C2 [Example 102, Exo-N-Pentyl-3-(1-piperidyl)-8-azabicyclo[3.2.1]octane-8-carboxamide] |
| < 200 nM | CC1(C)CN(c2ccccc2)CCN1C(=O)NCCCCc1ccccc1 [Example 103, 2,2-Dimethyl-4-phenyl-N-(4-phenylbutyl)piperazine-1-carboxamide] |
| > 1000 nM | CC1(C)CN(c2ccccn2)CCN1C(=O)NCCCCc1ccccc1 [Example 104, 2,2-Dimethyl-N-(4-phenylbutyl)-4-(2-pyridyl)piperazine-1-carboxamide] |
| > 1000 nM | CC1(C)CN(c2cncnc2)CCN1C(=O)NCCCCc1ccccc1 [Example 105, 2,2-Dimethyl-N-(4-phenylbutyl)-4-pyrimidin-5-yl-piperazine-1-carboxamide] |

More lines, now with the values behind:

| Compound | IC50 |
| --- | --- |
| CC1C(c2ccccc2)CCCN1C(=O)NCCCCc1ccccc1 (mixture of isomers) [Example 81, 2-Methyl-3-phenyl-N-(4-phenylbutyl)piperidine-1-carboxamide] | 200 to 1000 nM |
| CCCCCNC(=O)N1[C@@H]2CC[C@H]1CC(c1ccccc1)C2 (mixture of isomers) [Example 82, endo- and exo-N-Pentyl-3-phenyl-8-azabicyclo[3.2.1]octane-8-carboxamide] | > 1000 nM |
| CC1(C)CC(N2CCCCC2c2ccccc2)CCN1C(=O)NCCCCc1ccccc1 (mixture of isomers) [Example 91, 2,2-Dimethyl-N-(4-phenylbutyl)-4-(2-phenyl-1-piperidyl)piperidine-1-carboxamide] | > 1000 nM |
| CC1CC(N2CCCCC2)CCN1C(=O)NCCCCc1ccccc1 (mixture of isomers) [Example 94, 2-Methyl-N-(4-phenylbutyl)-4-(1-piperidyl)piperidine-1-carboxamide] | < 200 nM |
| CCCCCNC(=O)N1CCC(N2CCCCC2)C[C@@H]1C (mixture of isomers) [Example 97, (2S)-Methyl-N-pentyl-4-(1-piperidyl)piperidine-1-carboxamide] | 200 to 1000 nM |
| CCCCCNC(=O)N1C(c2ccc(F)cc2)COCC1(C)C (single isomer, unassigned) [Example 138, (5S) or (5R)-5-(4-Fluorophenyl)-3,3-dimethyl-N-pentylmorpholine-4-carboxamide] | < 200 nM |
| CC1(C)CCc2c(-c3ccccn3)cccc2N1C(=O)NCCc1ccccc1 [Example 5, 2,2-Dimethyl-N-phenethyl-5-(pyridin-2-yl)-3,4-dihydroquinoline-1(2H)-carboxamide] | > 1000 nM |
| CCCCCNC(=O)N1C(C)CC(N2CCCCC2)CC1C (stereo not drawn) [Example 98, 2,6-Dimethyl-N-pentyl-4-(1-piperidyl)piperidine-1-carboxamide hydrochloride] | < 200 nM |
| CC1(C)CCC(N2CCCCC2)CN1C(=O)NCCCCc1ccccc1 (stereo not drawn) [Example 99, 2,2-Dimethyl-N-(4-phenylbutyl)-5-(1-piperidyl)piperidine-1-carboxamide] | < 200 nM |
| CC1CCC(N2CCCCC2)CN1C(=O)NCCCCc1ccccc1 (stereo not drawn) [Example 100, 2-Methyl-N-(4-phenylbutyl)-5-(1-piperidyl)piperidine-1-carboxamide] | 200 to 1000 nM |
| CC1C(N2CCCCC2)CCCN1C(=O)NCCCCc1ccccc1 (stereo not drawn) [Example 101, 2-Methyl-N-(4-phenylbutyl)-3-(1-piperidyl)piperidine-1-carboxamide] | 200 to 1000 nM |
| CC1(C)C(=O)N(c2ccccc2)CCN1C(=O)NCCCCc1ccccc1 [Example 106, 2,2-Dimethyl-3-oxo-4-phenyl-N-(4-phenylbutyl)piperazine-1-carboxamide] | < 200 nM |
| CCCCCNC(=O)N1CCN(c2ccccc2)C(=O)C1(C)C [Example 107, 2,2-Dimethyl-3-oxo-N-pentyl-4-phenylpiperazine-1-carboxamide] | 200 to 1000 nM |
| CC1(C)C(=O)N(c2ccccc2)CCN1C(=O)NCCOCc1ccccc1 [Example 108, N-(2-Benzyloxyethyl)-2,2-dimethyl-3-oxo-4-phenylpiperazine-1-carboxamide] | > 1000 nM |
| COc1cc(N2CCN(C(=O)NCCCCc3ccccc3)C(C)(C)C2=O)ccc1F [Example 109, 4-(4-Fluoro-3-methoxy-phenyl)-2,2-dimethyl-3-oxo-N-(4-phenylbutyl)piperazine-1-carboxamide] | < 200 nM |
| CC1(C)CN(C2CCCCC2)CCN1C(=O)NCCCCc1ccccc1 [Example 110, 4-Cyclohexyl-2,2-dimethyl-N-(4-phenylbutyl)piperazine-1-carboxamide] | < 200 nM |
